The text below walks through data of patent US7166688B1, “Chelation compositions” (LidoChem, Inc., priority 2000, dated 2007).

Holding throughout (assay type): in vivo
For one experiment, the system named is pepper plants. Briefly: IDS versus EDTA chelates applied to the soil of pepper plants, tissue analysis. As for the experimental part:
Below is the protocol and tissue analysis for the soil-applied iminodisuccinate and EDTA chelated mineral salts. Treatments: Control—no fertilizer 15-30-15 (fertilizer) alone 15-30-15 plus Cu IDS […] 15-30-15 plus Mn IDS […] 15-30-15 plus Zn IDS […] The standard fertilizer contained no micronutrients. Fertilizer was Hyponex 15-30-15. Each treatment was replicated 3 times. Soil treatments were applied as 50 ml per of the dilute blend of this invention. The pepper plants were transplanted into 1-gallon containers and grown until a suitable size. Plants were treated with the soil-applied chelate. Tissue samples were taken 30 days after the soil treatment had been applied. […] One gallon of fertilizer was poured over three replications of each set in the trial.

Experiment [1] deals with Corn. Briefly: Foliar applied IDS chelated minerals, tissue analysis, corn. As for the experimental part:
(§1) An experimental trial was completed testing the efficacy of the Iminodisuccinates (IDS) of this invention on five different crops. Below is the protocol and tissue analysis for both soil and foliar applied iminodisuccinate chelated mineral salts.
(§2) A stock solution for foliar application was prepared by blending 6000 ml of water with T-DAT 09, (Harcross Chemical Company, USA) a surfactant, added to spray mix at 2 drops per liter. • 1). 5 ml of 9% zinc was added to 1 liter of stock solution. • 2). 5 ml of 5% copper was added to 1 liter of stock solution. • 3). 5 ml of 5% manganese was added to 1 liter of stock solution. • 4). 5 ml of 5% Iron was added to 1 liter of stock solution. • 5). 4 ml of 9% zinc, 1 ml of 5% copper, 1 ml of 5% manganese, and 1 ml of 5% iron was added to 1 liter of stock solution. • 6). Stock solution without further addition.
(§3) All plants were sprayed until wet. Harvested material was placed in an oven for one day and sent to the lab for tissue analysis. Harvesting occurred thirty days after planting and some plants had not grown enough to get complete lab results reported. The harvested corn plants were cut at the whirl to insure only new leaves would be tested. The soybeans were clipped above the cotyledon. The alfalfa and clover were removed from the soil and the roots were removed. The wheat was cut at the tillering node.

In experiment [2] the test system is Wheat. Briefly: Foliar applied IDS chelated minerals, tissue analysis, wheat. Here is the method:
as §1, §2, §3

Experiment [3] has as its system Clover. Briefly: Foliar applied IDS chelated minerals, tissue analysis, clover. As for the experimental part:
as §1, §2, §3

The next experiment deals with Soybean. Briefly: Foliar applied IDS chelated minerals, tissue analysis, soybeans. As for the experimental part: as §1, §2, §3
The subject of experiment [4] is Clover. Briefly: Soil applied IDS chelated minerals with 10-34-0, tissue analysis, clover. As for the experimental part:
as §1
(§4) A). The control pots were watered without any further treatments.
(§5) B). An ammonium polyphosphate stock solution was prepared by adding 50 ml of the 10-34-0 to 4000 ml of water. Treated plants received 100 ml of the stock solution.
(§6) (C). The Zinc stock solution was prepared by blending 10 ml of IDS chelated 9% Zinc to a blend of 50 ml of 10-34-0 with 4000 ml of water. Treated plants received 100 ml of the zinc stock solution.
(§7) (D). The mixture of IDS chelated micronutrients was prepared by adding 4 ml of 9% Zinc, 1 ml of 5% Copper, 1 ml of 5% manganese, and 1 ml of 5% Iron. This mixture was then blended with 4000 ml of water and 50 ml of 10-34-0.
as §3

The subject of experiment [5] is Wheat. Briefly: Soil applied IDS chelated minerals with 10-34-0, tissue analysis, wheat. As for the experimental part: as §1, §4, §5, §6, §7, §3
Experiment [6] has as its system Corn. Briefly: Soil applied IDS chelated minerals with 10-34-0, tissue analysis, corn. Here is the method:
as §1, §4, §5, §6, §7, §3

As for EDTA [reference compound], in the experiment on pepper plants (soil applied with 15-30-15, tissue 30 days after treatment, control 8.0), the “copper in tissue, TREATED” value is 12.9. In the experiment with pepper plants (soil applied, control 4.8), the “TREATED (dry weight)” value came to 6.2. For the same compound, the “TREATED DRY” value with pepper plants (soil applied, dry weight, CONTROL DRY 4.8) stood at 6.1. The “copper in tissue, TREATED ADJUSTED” value in the experiment on pepper plants (soil applied, tissue level times dry weight, control adjusted 38.08) was 80.03. Also, the “copper in tissue, CHANGE IN (adjusted)” value in the experiment with pepper plants (soil applied, treated adjusted minus control adjusted 38.08) turned out to be 41.95. Further, in the experiment on pepper plants (soil applied, treated dry minus control dry 4.8), the “CHANGE IN WEIGHT” value is on record as 1.36. The “copper in tissue, % CHANGE (adjusted)” value with pepper plants (soil applied, versus control adjusted 38.08) is on record as 110%. The “% CHANGE (dry weight)” value in the experiment on pepper plants (soil applied, versus control dry 4.8) came out at 29%.

In the case of COPPER, the “copper in plant tissue, TREATED” value is given as 300 parts per million in the experiment with Corn [1] (harvested 30 days after planting, control 5.2); 157 parts per million in the experiment with Wheat [2] (harvested 30 days after planting, control 10.8); 227 parts per million in the experiment with Clover [3] (harvested 30 days after planting, control 9.64); 937 parts per million in the experiment on Soybean (harvested 30 days after planting, control 4.74); 20.2 in the experiment with Clover [4] (soil applied with 10-34-0, harvested 30 days after planting, control 8.91); 12.1 in the experiment with Wheat [5] (soil applied with 10-34-0, harvested 30 days after planting, control 6.79). The “copper in plant tissue, TREATED” value in the experiment on Corn [6] (soil applied with 10-34-0, harvested 30 days after planting, control 5.43) was determined as 11.7. In addition, the “copper in plant tissue, CHANGE” value with Corn [1] (treated minus control 5.2) is 294.8 parts per million; in the experiment on Wheat [2] (treated minus control 10.8), 146.2 parts per million; with Clover [3] (treated minus control 9.64), 217.36 parts per million; in the experiment with Soybean (treated minus control 4.74) it was 932.26 parts per million; with Clover [4] (soil applied, treated minus control 8.91) it was 11.29; in the experiment on Wheat [5] (soil applied, treated minus control 6.79), 5.31. For the same compound, the “copper in plant tissue, CHANGE” value with Corn [6] (soil applied, treated minus control 5.43) worked out at 6.27. In addition, the “copper in plant tissue, % change” value in the experiment with Corn [1] (versus control 5.2) was determined as 5669%; in the experiment with Clover [4] (soil applied, versus control 8.91), 127%; in the experiment with Wheat [5] (soil applied, versus control 6.79) it was 78%. For the same compound, in the experiment on Corn [6] (soil applied, versus control 5.43), the “copper in plant tissue, %” value was 115%.

With IRON, the “iron in plant tissue, TREATED” value in the experiment on Corn [1] (harvested 30 days after planting, control 36.9) came out at 494 parts per million; in the experiment on Wheat [2] (harvested 30 days after planting, control 94.5) it was 334 parts per million; in the experiment with Clover [3] (harvested 30 days after planting, control 130) it was 731 parts per million; in the experiment on Soybean (harvested 30 days after planting, control 111), 557 parts per million; in the experiment with Clover [4] (soil applied with 10-34-0, harvested 30 days after planting, control 143) it was 224; with Wheat [5] (soil applied with 10-34-0, harvested 30 days after planting, control 79.3), 90.9. Moreover, in the experiment with Corn [6] (soil applied with 10-34-0, harvested 30 days after planting, control 45.4), the “iron in plant tissue, TREATED” value stood at 82.2. For the same compound, the “iron in plant tissue, CHANGE” value with Corn [1] (treated minus control 36.9) is on record as 457.1 parts per million; in the experiment on Wheat [2] (treated minus control 94.5) it was 239.5 parts per million; in the experiment on Clover [3] (treated minus control 130) it was 601 parts per million; in the experiment with Soybean (treated minus control 111) it was 446 parts per million; in the experiment on Clover [4] (soil applied, treated minus control 143) it was 81; in the experiment with Wheat [5] (soil applied, treated minus control 79.3), 11.6. For the same compound, in the experiment with Corn [6] (soil applied, treated minus control 45.4), the “iron in plant tissue, CHANGE” value stood at 36.8. Besides, the “iron in plant tissue, % change” value with Corn [1] (versus control 36.9) was 1239%; in the experiment on Soybean (versus control 111), 402%; in the experiment with Clover [4] (soil applied, versus control 143), 57%; with Wheat [5] (soil applied, versus control 79.3), 15%. Further, in the experiment with Corn [6] (soil applied, versus control 45.4), the “iron in plant tissue, %” value is on record as 81%.

For the compound `[Mn+2]`, the “manganese in plant tissue, TREATED” value in the experiment with Corn [1] (harvested 30 days after planting, control 99.1) was 310 parts per million; in the experiment on Wheat [2] (harvested 30 days after planting, control 72.1), 379 parts per million; with Clover [3] (harvested 30 days after planting, control 168), 510 parts per million; in the experiment with Soybean (harvested 30 days after planting, control 230) it was 544 parts per million; with Clover [4] (soil applied with 10-34-0, harvested 30 days after planting, control 154), 98.4; with Wheat [5] (soil applied with 10-34-0, harvested 30 days after planting, control 71.8) it was 76.2. The “manganese in plant tissue, TREATED” value in the experiment with Corn [6] (soil applied with 10-34-0, harvested 30 days after planting, control 128) was found to be 80.1. In addition, the “manganese in plant tissue, CHANGE” value is given as 210.9 parts per million in the experiment with Corn [1] (treated minus control 99.1); 306.9 parts per million with Wheat [2] (treated minus control 72.1); 342 parts per million with Clover [3] (treated minus control 168); 314 parts per million with Soybean (treated minus control 230); 4.4 in the experiment on Wheat [5] (soil applied, treated minus control 71.8). The “manganese in plant tissue, % change” value in the experiment with Corn [1] (versus control 99.1) was 213%; in the experiment with Soybean (versus control 230) it was 137%; in the experiment on Wheat [5] (soil applied, versus control 71.8), 6%.
